In patent publication US20240417405A1, “Substituted Spiro Derivatives” (Janssen Pharmaceutica NV, priority 2021, published 2024):
Read-outs that look alike come from different tables or passages of the source.

Experiments:
[1] = molecular target: T1, menin/MLL (terbium chelate-labeled menin, FITC-MBM1 peptide) (Homo sapiens, UniProt O00255, T541A); experiment: Menin/MLL homogenous time-resolved fluorescence (HTRF) assay; assay type: binding; conditions: 30 min incubation
T1 construct: Menin (a.a 1-610-6xhis tag)
T1 sequence (O00255 with tags, fused parts or gaps T541A): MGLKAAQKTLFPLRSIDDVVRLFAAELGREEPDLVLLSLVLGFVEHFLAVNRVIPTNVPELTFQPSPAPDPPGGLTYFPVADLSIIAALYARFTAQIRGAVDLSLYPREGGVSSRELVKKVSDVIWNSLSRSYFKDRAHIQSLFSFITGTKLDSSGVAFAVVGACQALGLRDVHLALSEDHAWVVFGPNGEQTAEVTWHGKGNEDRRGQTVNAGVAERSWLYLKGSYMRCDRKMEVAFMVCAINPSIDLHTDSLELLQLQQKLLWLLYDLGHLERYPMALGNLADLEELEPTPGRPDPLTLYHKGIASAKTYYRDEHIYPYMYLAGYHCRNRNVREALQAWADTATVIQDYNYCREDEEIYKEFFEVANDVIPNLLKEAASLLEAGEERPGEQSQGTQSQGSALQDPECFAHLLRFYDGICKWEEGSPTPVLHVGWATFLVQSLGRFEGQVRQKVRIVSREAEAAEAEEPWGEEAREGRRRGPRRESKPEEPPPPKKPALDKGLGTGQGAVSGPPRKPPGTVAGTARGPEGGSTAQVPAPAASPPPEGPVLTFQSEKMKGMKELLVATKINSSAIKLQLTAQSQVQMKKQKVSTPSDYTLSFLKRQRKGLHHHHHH
Procedure, shortened: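 Tb-cryptate menin (1-610, 6xHis) 200 pM + cmpd, 30 min RT; + FITC-MBM1 75 nM, 15 min RT. 40 mM Tris pH 7.5, 50 mM NaCl, 1 mM DTT, 0.05% Pluronic F-127, 0.5% DMSO. HTRF 520/490; 11-pt 4-fold from 10 μM; IC50 fit.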

[2] = test system: MOLM14 cells; experiment: Proliferation assay, spheroid-like growth, MOLM14 (MLL-AF9 rearranged); assay type: cell-based, human; conditions: 8 days, confluence as measure of spheroid size, read-out: spheroid assay_OneTime MOLM14 IC50
Procedure, shortened: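 200 MOLM14 or 300 KO-52 cells/well, ultra-low attachment, compound dilutions, DMSO 0.3%; 8 d, 37 °C, 5% CO2. Read: live-cell imaging confluence (spheroid size) day 8. Absolute IC50, min 0%/max 100% fixed, variable slope.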

[3] = test system: KO-52 cells; experiment: Proliferation assay, spheroid-like growth, KO-52 (MLL wildtype control cell line); assay type: cell-based, human; conditions: KO-52 control cells, 8 days, confluence as measure of spheroid size, read-out: spheroid assay_OneTime KO-52 IC50
Method: The anti-proliferative effect of menin/MLL protein/protein interaction inhibitor test compounds was assessed in human leukemia cell lines. The cell line MOLM14 harbors a MLL translocation and expresses the MLL fusion proteins MLL-AF9, respectively, as well as the wildtype protein from the second allele. […] KO-52 was used as a control cell line containing two MLL (KMT2A) wildtype alleles in order to exclude compounds that display general cytotoxic effects.
MOLM14 cells were cultured in RPMI-1640 (Sigma Aldrich) supplemented with 10% heat-inactivated fetal bovine serum (HyClone), 2 mM L-glutamine (Sigma Aldrich) and 50 μg/ml gentamycin (Gibco). KO-52 cell lines were propagated in alpha-MEM (Sigma Aldrich) supplemented with 20% heat-inactivated fetal bovine serum (HyClone), 2 mM L-glutamine (Sigma Aldrich) and 50 μg/ml gentamycin (Gibco).
In order to assess the anti-proliferative effects, 200 MOLM14 cells, or 300 KO-52 cells were seeded in 200 μl media per well in 96-well round bottom, ultra-low attachment plates (Costar, catalogue number 7007). Cell seeding numbers were chosen based on growth curves to ensure linear growth throughout the experiment. Test compounds were added at different concentrations and the DMSO content was normalized to 0.3%. Cells were incubated for 8 days at 37° C. and 5% CO2. Spheroid like growth was measured in real-time by live-cell imaging (IncuCyteZOOM, Essenbio, 4× objective) acquiring images at day 8. Confluence (%) as a measure of spheroid size was determined using an integrated analysis tool.
In order to determine the effect of the test compounds over time, the confluence in each well as a measure of spheroid size, was calculated. Confluence of the highest dose of a reference compound was used as baseline for the LC (Low control) and the confluence of DMSO treated cells was used as 0% cytotoxicity (High Control, HC).
Absolute IC50 values were calculated as percent change in confluence as follows:
LC=Low Control: cells treated with e.g. 1 μM of the cytotoxic agent staurosporin, or e.g. cells treated with a high concentration of an alternative reference compound
GraphPad Prism (version 7.00) was used to calculate the IC50. Dose-response equation was used for the plot of % Effect vs Log 10 compound concentration with a variable slope and fixing the maximum to 100% and the minimum to 0%.

Row | SMILES | IC50 [1] [µM] | IC50 ([2]; Homo sapiens, MOLM-14, 192 h) [µM] | IC50 ([3]; Homo sapiens, 192 h) [µM] | IC50 [2] [µM] | IC50 [3] [µM]
1 | CC(C)[C@H]([C@H]1C[C@@H](N2CCC[C@H](C(=O)N(C)C)C2)C1)N1CC2(CCN(c3ncnnc3Oc3ccc(F)cc3-c3cncnc3C3CC3)C2)C1 (single isomer, unassigned) [Compound 51] | 0.0001 | 0.014 | 14.4 |  | 
2 | CC(C)[C@H]([C@H]1C[C@H](N2CCC[C@H](C(=O)N(C)C)C2)C1)N1CC2(CCN(c3ncnnc3Oc3ccc(F)cc3-c3cncnc3C3CC3)C2)C1 (single isomer, unassigned) [Compound 52] | 0.0004 | 0.21 | 14 |  | 
3 | CC(=O)N1CC2(CCN([C@H]3C[C@@H]([C@@H](C(C)C)N4CC5(CCN(c6ncnnc6Oc6ccc(F)cc6-c6cncnc6C6CC6)C5)C4)C3)C2)C1 (single isomer, unassigned) [Compound 53] | 0.0002 | 0.005 | 9.28 |  | 
4 | CC(=O)N1CCC2C1CCN2[C@H]1C[C@@H]([C@@H](C(C)C)N2CC3(CCN(c4ncnnc4Oc4ccc(F)cc4-c4cncnc4C4CC4)C3)C2)C1 (single isomer, unassigned) [Compound 54] | 0.0003 |  | 4.96 | 0.028 | 
5 | CC(=O)N1CCC2C1CCN2[C@H]1C[C@@H]([C@@H](C(C)C)N2CC3(CCN(c4ncnnc4Oc4ccc(F)cc4-c4cncnc4C4CC4)C3)C2)C1 (single isomer, unassigned) [Compound 55] | 0.0005 |  |  | 0.095 | 6.43
6 | CC(=O)N1CC2(CCCN2[C@H]2C[C@@H]([C@@H](C(C)C)N3CC4(CCN(c5ncnnc5Oc5ccc(F)cc5-c5cncnc5C5CC5)C4)C3)C2)C1 (single isomer, unassigned) [Compound 56] | 0.0004 | 0.35 | > 15 |  | 
7 | CC(=O)N1CCC2CN([C@H]3C[C@@H]([C@@H](C(C)C)N4CC5(CCN(c6ncnnc6Oc6ccc(F)cc6-c6cncnc6C6CC6)C5)C4)C3)CC21 (single isomer, unassigned) [Compound 57] | 0.0001 |  | 7.54 | 0.008 | 
8 | CC(=O)N1CCC2CN([C@H]3C[C@@H]([C@@H](C(C)C)N4CC5(CCN(c6ncnnc6Oc6ccc(F)cc6-c6cncnc6C6CC6)C5)C4)C3)CC21 (single isomer, unassigned) [Compound 58] | 0.0001 |  |  | 0.019 | > 15
9 | CC(=O)N1CC[C@@]12CCN([C@H]1C[C@@H]([C@@H](C(C)C)N3CC4(CCN(c5ncnnc5Oc5ccc(F)cc5-c5cncnc5C5CC5)C4)C3)C1)C2 (single isomer, unassigned) [Compound 59] | 0.0001 | 0.024 | 5.01 |  | 
10 | CC(=O)N1CC[C@]12CCN([C@H]1C[C@@H]([C@@H](C(C)C)N3CC4(CCN(c5ncnnc5Oc5ccc(F)cc5-c5cncnc5C5CC5)C4)C3)C1)C2 (single isomer, unassigned) [Compound 60] | 0.0002 | 0.007 | 3.37 |  | 
11 | CC(C)[C@H]([C@H]1C[C@@H](N2CCC(C)(C(=O)N(C)C)CC2)C1)N1CC2(CCN(c3ncnnc3Oc3ccc(F)cc3-c3cncnc3C3CC3)C2)C1 (single isomer, unassigned) [Compound 62] | 0.0001 | 0.004 | 6.26 |  | 
12 | CC(=O)N1CC2CN([C@H]3C[C@@H]([C@@H](C(C)C)N4CC5(CCN(c6ncnnc6Oc6ccc(F)cc6-c6cncnc6C6CC6)C5)C4)C3)CC2C1 (single isomer, unassigned) [Compound 64] | 0.0001 | 0.002 | > 15 |  | 
13 | CC(=O)N1CC2CN([C@H]3C[C@H]([C@@H](C(C)C)N4CC5(CCN(c6ncnnc6Oc6ccc(F)cc6-c6cncnc6C6CC6)C5)C4)C3)CC2C1 (single isomer, unassigned) [Compound 65] | 0.0002 | 0.13 | 11.8 |  | 
14 | CC(C)[C@H]([C@H]1C[C@@H](N2CC[C@@]3(CCN(C)C3=O)C2)C1)N1CC2(CCN(c3ncnnc3Oc3ccc(F)cc3-c3cncnc3C3CC3)C2)C1 (single isomer, unassigned) [Compound 66] | 0.0001 | 0.006 | > 15 |  | 
15 | CC(C)[C@H]([C@H]1C[C@@H](N2CC[C@]3(CCN(C)C3=O)C2)C1)N1CC2(CCN(c3ncnnc3Oc3ccc(F)cc3-c3cncnc3C3CC3)C2)C1 (single isomer, unassigned) [Compound 67] | 0.0001 | 0.007 | > 15 |  | 
16 | CC(C)[C@H]([C@H]1C[C@@H](N2CC[C@H](C(C)(C)O)C2)C1)N1CC2(CCN(c3ncnnc3Oc3ccc(F)cc3-c3cncnc3C3CC3)C2)C1 (single isomer, unassigned) [Compound 68] | 0.0001 | 0.005 | 4.41 |  | 
17 | CC(C)[C@H]([C@H]1C[C@H](N2CC[C@H](C(C)(C)O)C2)C1)N1CC2(CCN(c3ncnnc3Oc3ccc(F)cc3-c3cncnc3C3CC3)C2)C1 (single isomer, unassigned) [Compound 69] | 0.0001 | 0.039 | 14 |  | 
18 | CC(C)[C@H]([C@H]1C[C@@H](N2CC[C@@H](C(C)(C)O)C2)C1)N1CC2(CCN(c3ncnnc3Oc3ccc(F)cc3-c3cncnc3C3CC3)C2)C1 (single isomer, unassigned) [Compound 70] | 0.0001 | 0.004 | 5.15 |  | 
19 | CC(C)[C@H]([C@H]1C[C@H](N2CC[C@@H](C(C)(C)O)C2)C1)N1CC2(CCN(c3ncnnc3Oc3ccc(F)cc3-c3cncnc3C3CC3)C2)C1 (single isomer, unassigned) [Compound 71] | 0.0001 | 0.06 | 9.73 |  | 
20 | CC(C)[C@H]([C@H]1C[C@@H](N2CCC[C@H](O)C2)C1)N1CC2(CCN(c3ncnnc3Oc3ccc(F)cc3-c3cccnc3C3CC3)C2)C1 (single isomer, unassigned) [Compound 78] | 0.0029 | 0.63 | 4.64 |  | 
21 | CC(=O)N1CCN([C@H]2C[C@@H]([C@@H](C(C)C)N3CC4(CCN(c5ncnnc5Oc5ccc(F)cc5-c5ncc(C#N)cc5C5CC5)C4)C3)C2)CC1 (single isomer, unassigned) [Compound 79] | 0.0003 | 0.24 | 3.66 |  | 
22 | CC(=O)N1CCN([C@H]2C[C@@H]([C@@H](C(C)C)N3CC4(CCN(c5ncnnc5Oc5ccc(F)cc5-c5cnncc5C5CC5)C4)C3)C2)CC1 (single isomer, unassigned) [Compound 80] | 0.0432 | > 0.94 | > 15 |  | 
